Laboratory results as given in ChEMBL document CHEMBL4665833, “Systematic Study of the Glutathione Reactivity of N-Phenylacrylamides: 2. Effects of Acrylamide Substitution” (J Med Chem, 2020).

Key:
Assay type in all cases: ADME
[1] = GSH reactivity in pH 7.4 phosphate buffer assessed as change in gibbs free energy at 1 uM in presence of glutathione measured up to 120 mins by LC/MS analysis; conditions: pH 7.4, 2 h
[2] = GSH reactivity in pH 7.4 phosphate buffer assessed as pseudo first-order rate constant at 1 uM in presence of glutathione measured up to 120 mins by LC/MS analysis; conditions: pH 7.4, 2 h
[3] = GSH reactivity in pH 7.4 phosphate buffer assessed as half life at 1 uM in presence of glutathione measured up to 120 mins by LC/MS analysis; conditions: phosphate buffer with glutathione

Row | SMILES | deltaG [1] [kJ/mol] | K [2] | half-life at 1 µM [3] [h]
1 | C=C(Cl)C(=O)Nc1ccccc1 | 90.4 | 231 10^-3/min | 0.05
2 | C=CC(=O)Nc1ccccc1 | 101 |  | 
3 | O=C(/C=C/CN1CCCC1)Nc1ccccc1 | 101 |  | 
4 | O=C(/C=C/CN1CC(F)(F)C(F)(F)C1)Nc1ccccc1 | > 103 |  | 
5 | C=C(CN(C)C)C(=O)Nc1ccccc1 | < 89.5 |  | 
6 | C=C(C(=O)Nc1ccccc1)C(F)(F)F | 94.6 |  | 

Second part, the compound after the results:

Row | deltaG [1] [kJ/mol] | K [2] | half-life at 1 µM [3] [h] | SMILES
7 | 101 |  |  | CCN(CC)C/C=C/C(=O)Nc1ccccc1
8 | 100 |  |  | CN(C)C/C=C/C(=O)Nc1ccccc1
9 | 103 |  |  | CN(C)CC/C=C/C(=O)Nc1ccccc1
10 |  | < 1.35 10^-3/min |  | O=C(/C=C/CN1CC(F)C1)Nc1ccccc1
11 |  | 2.13 10^-3/min | 5.43 | CN(C/C=C/C(=O)Nc1ccccc1)CCF
12 | 97.5 |  |  | O=C(/C=C/C(F)F)Nc1ccccc1
